Data on 19 molecules can be found in ChEMBL document CHEMBL4622905, “Synthesis and antifungal activity of new hybrids pyrimido[4,5-d]pyridazinone-N-acylhydrazones” (Bioorg Med Chem Lett, 2020).

A word on the MIC: it is the lowest concentration that inhibits growth of the organism. A word on the MFC: it is the lowest tested concentration that kills the fungus rather than only halting it.

Data set [1] has as its system Paracoccidioides brasiliensis. Nature of the data set: Antifungal activity against Paracoccidioides brasiliensis Pb18. The data set is classed as functional.
The test system of data set [2] is Paracoccidioides brasiliensis. Briefly: Fungicidal activity against Paracoccidioides brasiliensis Pb18. The data set is classed as functional.
Data set [3] has as its system Paracoccidioides brasiliensis. Briefly: Antifungal activity against Paracoccidioides brasiliensis Pb18 in presence of amphotericin B. The data set is classed as functional.
Data set [4] relates to Paracoccidioides brasiliensis. Briefly: Antifungal activity against Paracoccidioides brasiliensis Pb18 in presence of 0.25 ug/ml amphotericin B. The data set is classed as functional.
In data set [5] the test system is Paracoccidioides brasiliensis. Nature of the data set: Synergistic antifungal activity against Paracoccidioides brasiliensis Pb18 assessed as fractional inhibitory concentration in presence of amphotericin B. The data set is classed as functional.
The test system of the next data set is HeLa. Briefly: Cytotoxicity against human HeLa cells at 512 ug/ml. The data set is classed as cell-based.
Another data set deals with Vero. Briefly: Cytotoxicity against monkey Vero cells at 512 ug/ml. The data set is classed as cell-based. The following applies: chlorocebus sabaeus.
Data set [6] in a line: Selectivity index, ratio for cytotoxicity for human HeLa cells to MIC for Paracoccidioides brasiliensis Pb18. The data set is classed as toxicity, cell-based.
Data set [7] in a line: Selectivity index, ratio for cytotoxicity for monkey Vero cells to MIC for Paracoccidioides brasiliensis Pb18. The data set is classed as toxicity, cell-based.
For a further data set, the system named is Candida. Briefly: Antifungal activity against Candida. The data set is classed as functional, organism-based.
The test system of data set [8] is Paracoccidioides brasiliensis. Nature of the data set: Antifungal activity against Paracoccidioides brasiliensis Pb18 in presence of 0.01 ug/ml amphotericin B. The data set is classed as functional.
Another data set relates to Candida albicans. Briefly: Antifungal activity against Candida albicans. It counts as functional.
The next data set concerns Candida tropicalis. Briefly: Antifungal activity against Candida tropicalis. The data set is classed as functional.
The subject of data set [9] is Paracoccidioides brasiliensis. Briefly: Antifungal activity against Paracoccidioides brasiliensis Pb18 in presence of 0.06 ug/ml amphotericin B. It counts as functional.
The next data set has as its system Nakaseomyces glabratus. Briefly: Antifungal activity against Candida glabrata. The data set is classed as functional.
Data set [10] has as its system Paracoccidioides brasiliensis. Briefly: Antifungal activity against Paracoccidioides brasiliensis Pb18 in presence of 0.125 ug/ml amphotericin B. The data set is classed as functional.

SMILES strings stand for the structures. In brackets after ≈: the same amount, converted by molar mass. Activity calls are given as the source filed them. The calls are words filed in the database; no cut-off is given here.

As for `O=C(N/N=C/c1cccc([N+](=O)[O-])c1)c1n[nH]c(=O)c2nc(-c3ccccc3)ncc12`, in data set [1], the MIC is above 256 µg/mL.
As to `C[C@@H]1[C@H](O)[C@@H](C)/C=C/C=C/C=C/C=C/C=C/C=C/C=C/[C@H](O[C@@H]2O[C@H](C)[C@@H](O)[C@H](N)[C@@H]2O)C[C@@H]2O[C@](O)(C[C@@H](O)C[C@@H](O)[C@H](O)CC[C@@H](O)C[C@@H](O)CC(=O)O[C@H]1C)C[C@H](O)[C@H]2C(=O)O` [AMPHOTERICIN B], the MIC in [1] was determined as 1 µg/mL (≈ 1.08 µM). For the same molecule, in data set [2], the MFC was 1 µg/mL (≈ 1.08 µM).
Molecule `O=C(N/N=C/c1ccc([N+](=O)[O-])cc1)c1n[nH]c(=O)c2nc(-c3ccccc3)ncc12` showed an MIC in data set [1] above 256 µg/mL.
Turning to `O=C(N/N=C/c1ccc(F)cc1)c1n[nH]c(=O)c2nc(-c3ccccc3)ncc12`, the MIC in [1] was determined as 32 µg/mL (≈ 82.4 µM); in data set [3], 8 µg/mL; in data set [4], 0.5 µg/mL. In addition, the MFC in data set [2] worked out at 32 µg/mL (≈ 82.4 µM). The FIC in data set [5] came to 0.625. Moreover, the Activity with HeLa and in the data set with Vero was above 80% each time. In addition, the selectivity ratio in data set [6] and in data set [7] was 5 throughout. In addition, the outcome in the data set with Candida was inactive.
In turn, `CCC(C)n1ncn(-c2ccc(N3CCN(c4ccc(OCC5COC(Cn6cncn6)(c6ccc(Cl)cc6Cl)O5)cc4)CC3)cc2)c1=O` (stereo not drawn) [ITRACONAZOLE] gave an MIC in [1] of 1 µg/mL (≈ 1.42 µM).
Regarding `O=C(N/N=C/c1ccccc1)c1n[nH]c(=O)c2nc(-c3ccccc3)ncc12`, the MIC in data set [1] is 0.125 µg/mL (≈ 0.337 µM); in data set [3], 0.031 µg/mL; in data set [8], 1 µg/mL; in the data set on Candida albicans, 4 µg/mL (≈ 10.8 µM); against Candida tropicalis, 8 µg/mL (≈ 21.6 µM). Further, in data set [2], the MFC was found to be 0.5 µg/mL (≈ 1.35 µM). Moreover, the FIC in [5] is given as 0.134. Moreover, the Activity in the data set on HeLa and in the data set with Vero was above 80% in each case. Besides, the selectivity ratio in [6] and in data set [7] was 13 throughout.
In [1], `NNC(=O)c1n[nH]c(=O)c2nc(-c3ccccc3)ncc12` displayed an MIC above 256 µg/mL.
Still for that read-out and setting: next, `COc1ccc(/C=N/NC(=O)c2n[nH]c(=O)c3nc(-c4ccccc4)ncc23)cc1`: above 256 µg/mL.
Turning to `O=C(N/N=C/c1cc(Cl)ccc1O)c1n[nH]c(=O)c2nc(-c3ccccc3)ncc12`, the MIC came out at 64 µg/mL (≈ 152 µM) in data set [1], 4 µg/mL in data set [3], 0.5 µg/mL in data set [9] and 4 µg/mL (≈ 9.51 µM) against Nakaseomyces glabratus. In [2], this molecule returned an MFC of 64 µg/mL (≈ 152 µM). For the same molecule, the FIC in data set [5] is recorded as 0.245. The Activity in the data set with HeLa and in the data set with Vero was above 80% throughout. Further, the selectivity ratio in data set [6] and in [7] was 4 each time.
In the case of `O=C(N/N=C/c1ccccc1O)c1n[nH]c(=O)c2nc(-c3ccccc3)ncc12`, the minimal inhibitory concentration (MIC) in data set [1] is 128 µg/mL (≈ 331 µM); in data set [3], 8 µg/mL; in data set [10], 0.25 µg/mL. The molecule also yielded an MFC in data set [2] of 128 µg/mL (≈ 331 µM). Also, in data set [5], the FIC is reported as 0.625. Also, the Activity in the data set on HeLa and with Vero was above 80% each time. The selectivity ratio in data set [6] and in [7] was 3 throughout. Also, in the data set on Candida, the outcome was inactive.
On to `COc1cc(/C=N/NC(=O)c2n[nH]c(=O)c3nc(-c4ccccc4)ncc23)cc(OC)c1O`, for which the MIC in data set [1] was found to be 64 µg/mL (≈ 143 µM); in data set [3], 16 µg/mL; in data set [10], 0.5 µg/mL. The molecule further returned an MFC in [2] of 64 µg/mL (≈ 143 µM). In data set [5], the FIC turned out to be 0.75. The Activity in the data set on HeLa and in the data set on Vero was above 80% throughout. The selectivity ratio in data set [6] and in data set [7] was 4 in each case. The outcome in the data set on Candida was inactive.
For the molecule `O=C(N/N=C/c1ccc(-c2cccs2)s1)c1n[nH]c(=O)c2nc(-c3ccccc3)ncc12`, in data set [1], the MIC is above 256 µg/mL.
Consider `O=C(N/N=C/c1ccc(O)cc1)c1n[nH]c(=O)c2nc(-c3ccccc3)ncc12`, for which the MIC in data set [1] was 32 µg/mL (≈ 82.8 µM); in data set [3], 16 µg/mL; in data set [9], 0.5 µg/mL. In data set [2], the MFC is 32 µg/mL (≈ 82.8 µM). Moreover, the FIC in data set [5] is 0.37. In addition, the Activity in the data set with HeLa and with Vero was above 80% in each case. The selectivity ratio in [6] and in data set [7] was 5 throughout. Further, the outcome in the data set with Candida was inactive.
With `COc1ccc(/C=N/NC(=O)c2n[nH]c(=O)c3nc(-c4ccccc4)ncc23)cc1OC`, the figures for the minimum inhibitory concentration (MIC) in data set [1], in [3] and in [4] were 64 µg/mL (≈ 149 µM), 16 µg/mL and 0.5 µg/mL, respectively. The molecule also displayed an MFC in data set [2] of 64 µg/mL (≈ 149 µM). Further, the FIC in data set [5] is reported as 0.625. Moreover, the Activity in the data set on HeLa and with Vero was above 80% each time. Moreover, the selectivity ratio in data set [6] and in data set [7] was 4 throughout. In addition, the outcome in the data set with Candida was inactive.
Turning to `CN(C)c1ccc(/C=N/NC(=O)c2n[nH]c(=O)c3nc(-c4ccccc4)ncc23)cc1`, in [1], the minimal inhibitory concentration (MIC) was above 256 µg/mL.
`COc1cc(/C=N/NC(=O)c2n[nH]c(=O)c3nc(-c4ccccc4)ncc23)ccc1O` yielded an MIC in [1] above 256 µg/mL.
`O=C(N/N=C/c1cccs1)c1n[nH]c(=O)c2nc(-c3ccccc3)ncc12` registered an MIC in data set [1] above 256 µg/mL.
For `O=C(N/N=C/c1cc([N+](=O)[O-])ccc1O)c1n[nH]c(=O)c2nc(-c3ccccc3)ncc12`, the MIC in data set [1] came to 128 µg/mL (≈ 297 µM); in data set [3], 8 µg/mL; in data set [10], 0.25 µg/mL. In data set [2], this molecule gave an MFC of 128 µg/mL (≈ 297 µM). Moreover, the FIC in data set [5] is listed as 0.625. Besides, the Activity with HeLa and in the data set on Vero was above 80% throughout. Moreover, the selectivity ratio in data set [6] and in data set [7] was 3 throughout. Also, the outcome with Candida was inactive.
In data set [1], `O=C(N/N=C/c1ccccn1)c1n[nH]c(=O)c2nc(-c3ccccc3)ncc12` had an MIC above 256 µg/mL.
